Laboratory results: patent publication US20120202840A1, “Use of Flubendazole and Vinca Alkaloids for Treatment of Hematological Diseases” (priority 2009, published 2012)
“Also recorded” adds a separate entry of the source. Like-named read-outs stand apart in the source and are kept apart here.

How the values were obtained:
bovine tubulin = test: Tubulin polymerization assay; format: biochemical; conditions: cell-free, bovine tubulin 1.8 mg/ml; flubendazole 100 μM
Method: A representative figure is shown.
Polymerization of bovine tubulin was measured according to Beyer et al^28. Briefly, bovine tubulin (1.8 mg/ml; Cytoskeleton; Denver, USA) was added to ice cold polymerization buffer (PEM; 80 mM PIPES, 0.5 mM EGTA, 2 mM MgCl2, 10% glycerol and 1 mM GTP) and centrifuged at top speed in a microcentrifuge for 5 min at 4° C. […] Following addition of tubulin, the plate was immediately placed in the spectrophotometer, which was maintained at 37° C., and the absorbance measured every 3 minutes for 2.5 h at 340 nm.

A549.EpoB40 = test: MTS assay, A549.EpoB40 (β-tubulin mutant); format: cell-based
Method: (§1) Next, whether microtubule inhibition was functionally important for flubendazole's cytotoxicity was determined.
(§2) Leukemia (U937, MDAY, CEM, CEM-VBL) and solid tumor cell lines (PPC-1, HeLa) were cultured in RPMI 1640 medium. The epidermoid carcinoma cell lines KB-3-1 and KB-4.0-HTI^23 were grown in Dulbecco's Modified Eagle Medium. The lung carcinoma cell lines A549 and A549.EpoB40 were grown in RPMI with the latter supplemented with 20% fetal calf serum (FCS), and 40 nM epothilone B.^24 Leukemia cell lines OCI-AML2, CEM, and NB4 and all the myeloma cell lines (OPM2, KMS11, JJN3 LP1, H929, L1, KMS12, KSM18 and OCI My5) were maintained in Iscove's Modified Dulbecco's Medium (IMDM). TEX cells were maintained in IMDM, 15% FCS, 1% penicillin-streptomycin, 2 mM L-glutamine, 20 ng/mL SCF, 2 ng/mL IL-3. Unless otherwise noted, all media were supplemented with 10% FCS, 100 units/mL of streptomycin and 100 μg/mL of penicillin (all from Hyclone, Logan, Utah). Cells were incubated in a humidified air atmosphere containing 5% CO2 at 37° C.
(§3) Cell growth and viability was measured using the 3-(4,5-dimethylthiazol-2-yl)-5-(3-carboxymethoxyphenyl)-2-(4-sulfophenyl)-2H-tetrazolium inner salt (MTS) reduction assay (Promega, Madison, Wis.) according to the manufacture's protocol and as previously described^25. […] Optical density (OD) was measured at 490 nm.

[1] = cited from earlier work
CEM = test: MTS cell growth and viability assay, CEM; format: cell-based; conditions: Homo sapiens, CCRF-CEM, 3 replicates
Method: as §2
Cell growth and viability was measured using the 3-(4,5-dimethylthiazol-2-yl)-5-(3-carboxymethoxyphenyl)-2-(4-sulfophenyl)-2H-tetrazolium inner salt (MTS) reduction assay (Promega, Madison, Wis.) according to the manufacture's protocol and as previously described^25. Cells were seeded in 96 well plates and treated with drug for 72 h. Optical density (OD) was measured at 490 nm.

U937 leukemia cells = test: Analysis of gene expression (Affymetrix arrays); format: cell-based; conditions: 1.0 μM, 4 hours
Method: Briefly, total RNA was harvested from treated and untreated cells and hybridized to Affymetrix HG U133 Plus 2.0 gene expression oligonucleotide arrays (Affymetrix, Santa Clara, Calif., USA). Labeling and hybridization to arrays were performed by The Centre for Applied Genomics (Medical and Related Sciences Centre, Toronto, ON, Canada). Microarray data were analyzed using GeneSpring GX v10.0 (Agilent), and genes deregulated >4-fold after 4 hours flubendazole treatment were identified. Pathways and gene ontology analyses were carried out using Ingenuity Pathways Analysis (www.ingenuity.com) and the Database for Annotation, Visualization and Integrated Discovery (DAVID; http://david.abcc.ncifcrf.gov). Connectivity Map analysis, which compares the changes in gene expression signature following flubendazole treatment with gene expression signatures following treatment with other common pharmacological agents, was also performed (http://www.broadinstitute.org/cmap).

A549 = test: MTS assay, A549; format: cell-based; conditions: Homo sapiens, 3 replicates
Method: as §1, §2, §3

[2] = healthy volunteers, 1000 mg single oral dose, three days after administration; cited from earlier work
HeLa cells = test: in vitro; format: cell-based; conditions: HeLa, 0.5 or 1.0 μM, 8 hours
Method: (§4) (E) HeLa cells were grown to confluence and a wound created on the cell monolayer using a 200 μL pipette. Cells were treated with increasing concentrations of flubendazole and imaged every 2 h for 8 h. Wound healing was measured as described in the materials and methods. Representative data is shown and are presented as % wound recovery. *p<0.05 (ANOVA, bonferroni post hoc).
(§5) HeLa cell migration was measured as previously described^30. Briefly, HeLa cells were seeded in 4 well chambers and grown to confluence. A wound was inflicted to the monolayer using a 200 μL pipette tip. Wells were washed with media to remove any detached cells and media containing either 0 μM, 0.5 μM or 1.0 μM flubendazole was then added and incubated at 37° C. for 8 hours. Images were captured using a Zeiss Axiovert 200M microscope every 2 hours. These images were quantified using Image J software, which outlined and enumerated the number of pixels in the wound area. Cell migration of HeLa cells was recorded and calculated as a percent recovery of wound area.

in vitro = format: cell-based; conditions: human
Method: as §4, §5

Compound: COC(=O)Nc1nc2ccc(C(=O)c3ccc(F)cc3)cc2[nH]1 [flubendazole]
- effect on tubulin polymerization / microtubule formation (bovine tubulin): inhibited tubulin polymerization
- IC50 (A549.EpoB40; A549.EpoB40, MTS assay, 3 replicates): 800 ± 200 nM
- IC50 lower in A549.EpoB40 than in A549 control cells (A549.EpoB40; ratio of IC50 values of Table 1): 5 fold
- toxicity ([1]; healthy volunteers, single oral doses up to 2000 mg): without toxicity
- toxicity ([1]; humans, 40-50 mg/kg/day for 10 days, neurocysticercosis): no toxicity from the drug was reported
- adverse effects ([1]; patients, up to 50 mg/kg orally daily for up to 24 months): without serious adverse effects; also recorded: without adverse effect
- IC50 (CEM): 1900 ± 900 nM
- number of genes deregulated >4 fold (U937 leukemia cells): 196
- IC50 (A549): 4100 ± 1300 nM
- unchanged drug detected in the feces [2]: 77%
- unchanged drug detected in the urine [2]: less than 0.1%
- cell migration / wound healing (HeLa cells): impaired cell migration and delayed wound healing
- viability at 8 h (in vitro): > 89%
